This note sets out measurements from patent publication US6414020B2, “Amidino protease inhibitors” (3- Dimensional Pharmaceuticals, Inc., priority 1995, dated 2002).

Where a name gives a salt, the structure may show the parent alone.

Type in all cases: biochemical
One test has as its target T1, human α-thrombin (Homo sapiens, UniProt P00734).
T1 construct: Purified human a-thrombin was diluted into assay buffer; purchased Enzyme Research Laboratories (South Bend, Indiana)
Nature of the test: In vitro inhibition of purified thrombin, Ki determination (p-nitroanilide substrate hydrolysis). The settings on record: Enzyme: Thrombin; substrate Suc-Ala-Ala-Pro-Arg-pNA 20 μM, 37° C., pH 7.5. The text has this: (§1) All buffer salts were obtained from Sigma Chemical Company (St. Louis, Mo.), and were of the highest purity available. The enzyme substrates, N-benzoyl-Phe-Val-Arg-p-nitroanilide (SigmaB7632),N-benzoyl-Ile-Glu-Gly-Arg-p-nitroanilide (Sigma B2291), N-p-tosyl-Gly-Pro-Lys-p-nitroanilide (Sigma T6140), and N-succinyl-Ala-Ala-Pro-Phe-p-nitroanilide (Sigma S7388) were all obtained from Sigma.
(§2) Human α-thrombin and human factor Xa were obtained from Enzyme Research Laboratories (South Bend, Indiana). Bovine trypsin was obtained from Sigma.
All assays are based on the ability of the test compound to inhibit the enzyme catalyzed hydrolysis of a peptide p-nitroanilide substrate. In a typical Ki determination, substrate is prepared in DMSO, and diluted into an assay buffer consisting of 50 mM HEPES, 200 mM NaCl, pH 7.5. The final concentration for each of the substrates is listed below. In general, substrate concentrations are lower than the experimentally determined value for Km. Test compounds are prepared as a 0.16 mg/mL solution in DMSO. Dilutions are prepared in DMSO yielding 8 final concentrations encompassing a 200-fold concentration range. Enzyme solutions are prepared at the concentrations listed below in assay buffer.
(§3) In a typical Ki determination, into each well of a 96 well plate is pipetted 280 uL of substrate solution, 10 μL of inhibitor solution, and the plate allowed to thermally equilibrate at 37° C. in a Molecular Devices plate reader for >10 minutes. Reactions were initiated by the addition of a 20 μL aliquot of enzyme, and the absorbance increase at 405 nm is recorded for 15 minutes. Data corresponding to less than 10% of the total substrate hydrolysis were used in the calculations. The ratio of the velocity (rate of the change in absorbance as a function of time) for a sample containing no inhibitor is divided by the velocity of a sample containing inhibitor, and is plotted as a finction of inhibitor concentration. The data are fit to a linear regression, and the value of the slope of the line calculated. The inverse of the slope is the experimentally determined Ki value.
Thrombin activity was assessed as the ability to hydrolyze the substrate Suc-Ala-Ala-Pro-Arg-pNA. Substrate solutions were prepared at a concentration of 20 μM (20 uM<<Km=180 μM) in assay buffer. Final DMSO concentration was 0.3%. Purified human a-thrombin was diluted into assay buffer to a concentration of […]. Final reagent concentrations were: [thrombin] ═0.5 nM, [Suc-Ala-Ala-Pro-Arg-pNA]=20 μM.

For the next test, the target named is T2, bovine α-chymotrypsin (Bos taurus, UniProt P00766).
T2 construct: Purified bovine x-chymotrypsin was diluted into assay buffer
The test can be described thus: In vitro inhibition of purified chymotrypsin, Ki determination (p-nitroanilide substrate hydrolysis). The note with it: Enzyme: Chymotrypsin; substrate Suc-Ala-Ala-Pro-Phe-pNA 14 μM, 37° C., pH 7.5.
From the text: as §1
All assays are based on the ability of the test compound to inhibit the enzyme catalyzed hydrolysis of a peptide p-nitroanilide substrate. In a typical Ki determination, substrate is prepared in DMSO, and diluted into an assay buffer consisting of 50 mM HEPES, 200 mM NaCl, pH 7.5. […] In general, substrate concentrations are lower than the experimentally determined value for Km. […]
as §3, with “Data corresponding to less than 10% of the total substrate hydrolysis were used in the calculations.” left out, “The data are fit to a linear regression, and the value of the slope of the line calculated. The inverse of the slope is the experimentally determined Ki value.” left out

The target in a further test is T3, bovine trypsin (Bos taurus, UniProt P00760).
T3 construct: Purified bovine trypsin was diluted into assay buffer; purchased Sigma
T3 sequence (P00760 24-246): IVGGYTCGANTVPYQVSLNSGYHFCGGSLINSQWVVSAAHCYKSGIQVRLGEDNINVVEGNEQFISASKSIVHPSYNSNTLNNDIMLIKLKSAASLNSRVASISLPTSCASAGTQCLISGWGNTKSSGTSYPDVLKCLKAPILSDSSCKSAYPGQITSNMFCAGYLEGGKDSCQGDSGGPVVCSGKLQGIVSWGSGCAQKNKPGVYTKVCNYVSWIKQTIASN
Nature of the test: In vitro inhibition of purified trypsin, Ki determination (p-nitroanilide substrate hydrolysis). The settings on record: Enzyme: Trypsin; substrate Bz-Phe-Val-Arg-pNA 14 μM, 37° C., pH 7.5.
From the text: as §1, §2
(§4) All assays are based on the ability of the test compound to inhibit the enzyme catalyzed hydrolysis of a peptide p-nitroanilide substrate. […] In general, substrate concentrations are lower than the experimentally determined value for Km. […]
as §3, with “Data corresponding to less than 10% of the total substrate hydrolysis were used in the calculations.” left out, “The data are fit to a linear regression, and the value of the slope of the line calculated. The inverse of the slope is the experimentally determined Ki value.” left out

In another test the target is T4, human factor Xa (Homo sapiens, UniProt P00742).
T4 construct: purchased Enzyme Research Laboratories (South Bend, Indiana)
Nature of the test: In vitro inhibition of purified factor Xa, Ki determination (p-nitroanilide substrate hydrolysis). The settings on record: Enzyme: Factor Xa; substrate Bz-Ile-Glu-Gly-Arg-pNA 51 μM, 37° C., pH 7.5.
From the text: as §1, §2, §4
as §3, with “Data corresponding to less than 10% of the total substrate hydrolysis were used in the calculations.” left out, “The data are fit to a linear regression, and the value of the slope of the line calculated. The inverse of the slope is the experimentally determined Ki value.” left out

T4 sequence (P00742 235-488 limits assumed): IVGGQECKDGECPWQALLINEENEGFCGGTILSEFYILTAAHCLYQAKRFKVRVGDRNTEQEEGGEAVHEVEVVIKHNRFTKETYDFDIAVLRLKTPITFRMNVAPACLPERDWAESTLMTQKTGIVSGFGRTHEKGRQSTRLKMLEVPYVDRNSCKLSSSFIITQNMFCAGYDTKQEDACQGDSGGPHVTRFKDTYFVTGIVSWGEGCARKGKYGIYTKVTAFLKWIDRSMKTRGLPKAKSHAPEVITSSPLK
T4 sequence (P00742 41-179 limits assumed): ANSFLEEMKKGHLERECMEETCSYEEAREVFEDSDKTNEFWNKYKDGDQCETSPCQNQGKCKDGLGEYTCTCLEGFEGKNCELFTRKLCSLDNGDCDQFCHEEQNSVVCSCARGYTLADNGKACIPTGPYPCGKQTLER

Usually Ki stands for the equilibrium dissociation constant of an inhibitor or competing ligand from its target. A higher Ki goes with a looser hold on the target. `CC(=N)N1CCC(COc2cc(C)cc(OS(=O)(=O)c3cccc(Cl)c3)c2)CC1` [Example 5, 3-Chlorobenzenesulfonic acid 3-[[(1-acetimidoyl)piperidin-4-yl]methoxyl]-5-methylphenyl ester hydrochloride]: affinity on human α-thrombin was put at a Ki of 4860 nM.
Same read-out and setting: the figure for `Cc1cc(OCCCC(=N)N)cc(OS(=O)(=O)c2ccccc2Cl)c1` [Example 14, 2-Chlorobenzenesulfonic acid 3-[3-amidinopropoxy]-5-methylphenyl ester hydrochloride] is 570 nM; for `CC(=N)N1CCC(COc2cc(C)cc(OS(=O)(=O)c3cccc(Cl)c3Cl)c2)CC1` [Example 8, 2,3-Dichlorobenzenesulfonic acid 3-[[(1-acetimidoyl)piperidin-4-yl]methoxy]-5-methylphenyl ester hydrochloride] it is 1720 nM.
Compound `Cc1cc(OCCCCCC(=N)N)cc(OS(=O)(=O)c2ccccc2Cl)c1` [Example 18, 2-Chlorobenzenesulfonic acid 3-[5-amidinopentyloxy]-5-methylphlenyl ester acetic acid salt] gave an inhibitory constant (Ki) at bovine α-chymotrypsin of 6290 nM.
As to `Cc1cc(OCc2cccc(C(=N)NO)c2)cc(OS(=O)(=O)c2ccccc2Cl)c1` [Example 7, 2-Chlorobenzenesutronic acid 3-[[3-(N-hydroxy)amidinophenyl]methoxy-5-methylphenyl ester hydrochloride], the inhibitory constant (Ki) at bovine trypsin worked out at 5230 nM.
`CC(=N)N1CCC(COc2cc(C)cc(OS(=O)(=O)c3ccccc3Cl)c2)CC1` [Example 1, 2-Chlorobenzenesulfonic acid 3-[(1-acetimidoylpiperidin-4-yl)methoxy]-5-methylphenyl ester hydrochloride] displayed an inhibition constant Ki at human α-thrombin of 1650 nM.
On human factor Xa, `Cc1cc(OCc2cccc(C(=N)N)c2)cc(OS(=O)(=O)c2ccccc2Cl)c1` [Example 6, 2-Chlorobenzenesulfonic acid 3-[(3amidinophenyl)methoxy]-5-methylphenyl ester hydrochloride] came in with an inhibition constant Ki of 2720 nM.
